Test results taken from publication PMC9401617 (Science Advances, 2022).
Changes are numbered by the printed parent chain. Like-named read-outs stand apart in the source and are kept apart here.

How the values were obtained:
[1] = target: T1, hUHRF1 (Homo sapiens, UniProt Q96T88, R649A); experiment: MST with labeled recombinant mutant protein; assay type: binding
T1 sequence (Q96T88 1-793 R649A): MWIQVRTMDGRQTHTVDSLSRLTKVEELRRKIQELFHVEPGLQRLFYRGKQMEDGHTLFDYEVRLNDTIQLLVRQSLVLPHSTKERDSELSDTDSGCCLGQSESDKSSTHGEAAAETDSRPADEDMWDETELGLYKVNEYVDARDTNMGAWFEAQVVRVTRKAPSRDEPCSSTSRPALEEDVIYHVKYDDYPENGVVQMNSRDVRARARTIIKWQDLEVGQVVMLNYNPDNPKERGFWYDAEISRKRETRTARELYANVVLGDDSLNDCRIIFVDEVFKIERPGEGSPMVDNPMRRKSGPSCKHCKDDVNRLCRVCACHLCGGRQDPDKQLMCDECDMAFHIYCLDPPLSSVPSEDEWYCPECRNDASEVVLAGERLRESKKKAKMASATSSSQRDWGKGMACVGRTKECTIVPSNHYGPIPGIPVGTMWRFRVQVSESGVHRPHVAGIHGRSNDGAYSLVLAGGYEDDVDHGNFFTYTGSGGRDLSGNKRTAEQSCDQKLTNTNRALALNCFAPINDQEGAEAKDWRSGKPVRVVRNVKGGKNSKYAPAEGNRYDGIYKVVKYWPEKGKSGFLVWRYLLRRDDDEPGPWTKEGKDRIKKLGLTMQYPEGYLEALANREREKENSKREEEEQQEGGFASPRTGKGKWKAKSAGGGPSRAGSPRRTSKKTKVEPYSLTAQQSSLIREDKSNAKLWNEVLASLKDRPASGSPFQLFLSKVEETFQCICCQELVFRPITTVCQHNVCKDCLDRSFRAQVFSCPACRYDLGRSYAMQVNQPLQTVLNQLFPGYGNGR

[2] = system: hUHRF1 (Homo sapiens); experiment: EMSA
[3] = target: T2, hUHRF1 (Homo sapiens, UniProt Q96T88); experiment: MST with labeled recombinant protein; assay type: binding
T2 sequence (Q96T88 1-793): T1 sequence (Q96T88 1-793 R649A) with A649R

[4] = target: T3, hUHRF1 (Homo sapiens, UniProt Q96T88, D142A); experiment: MST with labeled recombinant mutant protein; assay type: binding
T3 sequence (Q96T88 1-793 D142A): T1 sequence (Q96T88 1-793 R649A) with D142A, A649R

[5] = target: T2, hUHRF1; experiment: MST with labeled recombinant protein; assay type: binding; remark: listed apart in the source

With `CCCCCCCCCCCCCCCC(=O)OC[C@H](COP(=O)(O)O[C@H]1[C@H](O)[C@@H](OP(=O)(O)O)[C@H](O)[C@@H](O)[C@H]1O)OC(=O)CCCCCCCCCCCCCCC` [R649*, di-C 16:0 PI5P] the Kd [1] was 3 µM.

“H3unmodified mononucleosome, 147 bp Widom 601” showed a Kd [2] of 1.1 µM.

In the case of `CCCCCCCCCCCCCCCC(=O)OC[C@H](COP(=O)(O)O[C@@H]1[C@H](O)[C@H](OP(=O)(O)O)[C@@H](O)[C@H](O)[C@H]1O)OC(=O)CCCCCCCCCCCCCCC` [PI3P, di-C 16:0 PI3P], the Kd [3] is reported as 5.5 µM.

`CCCCCCCCCCCCCCCC(=O)OC[C@H](COP(=O)(O)O[C@H]1[C@H](O)[C@@H](OP(=O)(O)O)[C@H](O)[C@@H](O)[C@H]1O)OC(=O)CCCCCCCCCCCCCCC` [D142*, di-C 16:0 PI5P] showed a Kd [4] of 60 µM.

In the case of `CCCCCCCCCCCCCCCC(=O)OC[C@H](COP(=O)(O)O[C@H]1[C@H](O)[C@@H](OP(=O)(O)O)[C@H](O)[C@@H](O)[C@H]1O)OC(=O)CCCCCCCCCCCCCCC` [PI5P, di-C 16:0 PI5P], the Kd [5] is reported as 4.7 µM.
